From patent US20090270371A1, “QUINOLINE DERIVATIVES USEFUL IN THE TREATMENT OF MGLUR5 RECEPTOR-MEDIATED DISORDERS” (priority 2005, published 2009) come the findings set out here.

T1 sequence (P31424 21-1203): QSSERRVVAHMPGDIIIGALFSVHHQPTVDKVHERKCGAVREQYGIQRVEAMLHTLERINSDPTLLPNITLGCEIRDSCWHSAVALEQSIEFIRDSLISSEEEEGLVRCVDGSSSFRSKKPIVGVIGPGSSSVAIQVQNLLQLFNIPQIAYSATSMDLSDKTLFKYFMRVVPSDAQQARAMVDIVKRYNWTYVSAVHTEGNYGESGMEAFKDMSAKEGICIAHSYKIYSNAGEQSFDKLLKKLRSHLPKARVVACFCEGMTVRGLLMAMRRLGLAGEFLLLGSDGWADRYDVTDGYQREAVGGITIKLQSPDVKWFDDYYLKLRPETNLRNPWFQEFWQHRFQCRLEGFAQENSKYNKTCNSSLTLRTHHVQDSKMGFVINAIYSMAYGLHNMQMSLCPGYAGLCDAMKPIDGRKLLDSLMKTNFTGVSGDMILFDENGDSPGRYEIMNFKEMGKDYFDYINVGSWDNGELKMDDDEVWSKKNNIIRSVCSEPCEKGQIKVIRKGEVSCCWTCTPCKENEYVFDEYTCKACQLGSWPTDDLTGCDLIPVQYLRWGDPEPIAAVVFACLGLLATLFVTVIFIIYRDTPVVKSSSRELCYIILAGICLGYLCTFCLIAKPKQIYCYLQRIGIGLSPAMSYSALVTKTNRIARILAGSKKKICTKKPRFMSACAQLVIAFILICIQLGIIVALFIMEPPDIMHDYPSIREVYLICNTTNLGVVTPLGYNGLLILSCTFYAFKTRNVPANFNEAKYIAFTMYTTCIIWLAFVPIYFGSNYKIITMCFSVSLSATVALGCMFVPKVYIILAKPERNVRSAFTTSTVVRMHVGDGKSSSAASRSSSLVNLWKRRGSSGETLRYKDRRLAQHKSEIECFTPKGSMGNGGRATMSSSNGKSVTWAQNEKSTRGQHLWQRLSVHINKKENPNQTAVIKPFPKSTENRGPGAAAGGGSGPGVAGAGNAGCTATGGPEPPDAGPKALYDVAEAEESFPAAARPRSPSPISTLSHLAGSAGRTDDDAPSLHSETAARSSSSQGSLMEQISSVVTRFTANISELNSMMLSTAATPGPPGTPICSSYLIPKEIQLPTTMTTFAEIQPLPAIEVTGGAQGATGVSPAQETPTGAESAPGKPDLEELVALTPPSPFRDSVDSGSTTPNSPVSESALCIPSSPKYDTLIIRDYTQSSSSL

The assay concerns the target T1, rat mGluR5 receptors (Rattus norvegicus, UniProt P31424).
T1 construct: rat cerebro-cortical membrane preparation was used; from tissue; host or cells: rat cerebral cortex membranes
Kind of assay: mGluR5 receptor binding test, rat cerebro-cortical membrane preparation, [3H]-M-MPEP. The note with it: affinity for rat mGluR5 receptors; [3H]-M-MPEP (2 nM) radioligand. In outline: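 Radioligand binding used rat cerebro-cortical membranes with 2 nM [3H]-M-MPEP. Nonspecific binding was defined with 10 μM M-MPEP. The method follows a modification of a published procedure.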
`Cc1ccc2ncc(S(=O)(=O)c3ccc(F)cc3)c(N3CCC(C)CC3)c2c1` [Compound 156] gave a Ki of less than 200 nM.

With `COc1ccc2ncc(S(=O)(=O)c3ccccc3)c(N3CCN(c4cccc(C)c4C)CC3)c2c1` [Compound 69], the Ki is greater than 500 nM. `O=S(=O)(c1ccc(Cl)cc1)c1cnc2ccc(F)cc2c1N1CCC(F)(F)CC1` [Compound 348] yielded a Ki of 200 to 500 nM. On to `CCN(CC)c1c(S(=O)(=O)c2ccc(Cl)cc2)cnc2cc3c(cc12)OCCO3` [Compound 18], for which the Ki is greater than 500 nM. The molecule `O=S(=O)(c1ccc(Cl)c(Cl)c1)c1cnc2ccc(F)cc2c1N1CCOCC1` [Compound 286] yielded a Ki of 200 to 500 nM. Molecule `Cc1ccc(S(=O)(=O)c2cnc3ccccc3c2N2CCN(Cc3ccccc3)CC2)cc1` [Compound 80] registered a Ki greater than 500 nM. For `Cc1ccc(S(=O)(=O)c2cnc3ccc(C)cc3c2N2CCCCCC2)cc1` [Compound 86], the Ki was greater than 500 nM.

As for `O=S(=O)(c1cc(F)cc(F)c1)c1cnc2cc(F)ccc2c1N1CCOCC1` [Compound 310], the Ki was greater than 500 nM. For `Cc1ccc(S(=O)(=O)c2cnc3ccc(F)cc3c2N2CCN(c3ccccc3)CC2)cc1` [Compound 67], the inhibitory constant (Ki) is greater than 500 nM. Regarding `COc1ccc2ncc(S(=O)(=O)c3ccc(Cl)cc3)c(N3CCC(C)CC3)c2c1` [Compound 15], the Ki is greater than 500 nM.

Turning to `CCc1ccc2ncc(S(=O)(=O)c3ccc(OC)cc3)c(N3CCCCC3)c2c1` [Compound 134], the Ki was greater than 500 nM.

`CC1CCN(c2c(S(=O)(=O)c3ccc(C#N)cc3)cnc3ccc(Cl)cc23)CC1` [Compound 218] had a Ki greater than 500 nM. `CC1CCN(c2c(S(=O)(=O)c3cc(F)cc(F)c3)cnc3cc(F)ccc23)CC1` [Compound 170] had a Ki of 200 to 500 nM. `CCOC(=O)C1CCN(c2c(S(=O)(=O)c3ccc(Cl)cc3)cnc3ccc(CC)cc23)CC1` [Compound 53]: the Ki is less than 200 nM. `O=S(=O)(c1cc(Cl)cc(Cl)c1)c1cnc2cc(Cl)ccc2c1N1CCOCC1` [Compound 318] returned a Ki of less than 200 nM. On to `O=S(=O)(c1cc(F)cc(F)c1)c1cnc2c(F)cccc2c1N1CCOCC1` [Compound 336], for which the Ki is 200 to 500 nM. `CC1CCN(c2c(S(=O)(=O)c3ccc(F)c(Cl)c3)cnc3c(F)cccc23)CC1` [Compound 237] showed a Ki of less than 200 nM.

Turning to `COc1cccc(Nc2c(S(=O)(=O)c3ccccc3)cnc3ccc(OC)cc23)c1` [Compound 23], the Ki was greater than 500 nM. For the molecule `Cc1ccc2ncc(S(=O)(=O)c3ccc(Cl)c(Cl)c3)c(N3CCC(C)CC3)c2c1` [Compound 164], the Ki was less than 200 nM.

The term Ki denotes a measure of affinity in units of concentration, obtained from inhibition or displacement. A low value points to higher affinity.
